Test results taken from patent US6476067B1, “N-formyl hydroxylamine derivatives as antibacterial agents” (British Biotech, priority 1998, dated 2002).
In brackets after ≈: the same amount, converted by molar mass.

Columns and labels:
[1] = test system: E. coli strain DH5α; experiment: Minimal inhibitory concentration (MIC), broth microdilution; assay type: cell-based; details: Escherichia coli, 2×YT broth, 37° C., 18 hours, lowest concentration that inhibited visible growth
Protocol: (§1) Minimal inhibitory concentrations (MIC) of inhibitors against E. colistrain DH5α (Genotype; F-φ80d/acZΔM15Δ(lacZYA-argF)U169 deoR recA1 endA1 hsdR17(rk^−,mk^+)phoA supE44λ^−thi-1 gyrA96 re/A1) obtained from GibcoBRL Life Technologies, or Staphylococcus capitis (American Type Culture Collection number 35661) were determined as follows. Stock solutions of each test compound were prepared by dissolution of the compound in dimethylsulfoxide at 10 mM. For the determination of the minimal inhibitory concentration, two fold serial dilutions were prepared in 2×YT broth (typtone-16 g/1, yeast extract 10 g/1, sodium chloride 5 g/1 obtained from BIO 101 Inc, 1070 Joshua Way, Vista, Calif. 92083, USA) to yield 0.05 ml compound-containing medium per well. Inocula were prepared from cultures grown overnight in 2×YT broth at 37° C. Cell densities were adjusted to absorbance at 660 nm (A660)=0.1; the optical density-standardized preparations were diluted 1:1000 in 2×YT broth; and each well inoculated with 0.05 ml of the diluted bacteria. Microtiter plates were incubated at 37° C. for 18 hours in a humidified incubator. The MIC (μM) was recorded as the lowest drug concentration that inhibited visible growth.

[2] = test system: Staphylococcus capitis (American Type Culture Collection number 35661); experiment: as above; assay type: cell-based; details: ATCC35661, S. capitis ATCC 35661, 2×YT broth, 37° C., 18 hours, lowest concentration that inhibited visible growth
Protocol: as §1

Row | Structure (SMILES) | MIC [1] | MIC [2] | melting point
1 | CC(C)C[C@@H](C(=O)N[C@@H](Cc1ccccc1)C(=O)OC1CCCC1)C(C)N(O)C=O (stereo partly drawn) [Example 2, 2S-{2R-[1-(R,S)-(Formyl-hydroxy-amino)-ethyl]-4-methyl-pentanoylamino}-3-phenylpropionic Acid Cyclopentyl Ester] | > 200 µM | 200 to 300 µM (≈ 83.7 to 126 µg/mL) | –
2 | O=CN(O)C[C@@H](CC1CCCC1)C(=O)N[C@@H](Cc1ccccc1)C(=O)OC1CCCC1 [Example 16, 2S-[2R-Cyclopentylmethyl-3-(formyl-hydroxy-amino)-propionylamino]-3-phenyl-propionic Acid Cyclopentyl Ester] | – | – | 76.8 to 78.5 °C
3 | CCCC[C@H](CN(O)C=O)C(=O)N[C@H](C(=O)OC1CCCC1)C(C)(C)C [Example 3, 2S{-2R-[(Formyl-hydroxy-amino)-methyl]-hexanoylamino}-3,3-dimethyl Butyric Acid Cyclopentyl Ester] | 50 µM (≈ 18.5 µg/mL) | 12.5 µM (≈ 4.63 µg/mL) | –
4 | CCCC[C@H](CN(O)C=O)C(=O)N[C@@H](Cc1ccccc1)C(=O)OC1CCCC1 [Example 4, 2S-{2R-[(Formyl-hydroxy-amino)-methyl]-hexanoylamino}-3-phenyl-propionic Acid Cyclopentyl Ester] | 200 to 300 µM (≈ 80.9 to 121 µg/mL) | 25 µM (≈ 10.1 µg/mL) | –
5 | CCCC[C@H](CN(O)C=O)C(=O)N[C@H](C(=O)OC(C)(C)C)C(C)(C)C [Example 11, 2S-{2R-[(Formyl-hydroxy-amino)-methyl]-hexanoylamino}-3,3-dimethyl-butyric Acid Tert-butyl Ester] | – | – | 76.1 to 78.2 °C
6 | CCCC[C@H](CN(O)C=O)C(=O)N[C@H](C(=O)OC)C(C)(C)C [Example 5, 2S-{2R-[(Formyl-hydroxy-amino)methyl]-hexanoylamino}-3,3-dimethyl Butyric Acid Methyl Ester] | 50 µM (≈ 15.8 µg/mL) | 200 µM (≈ 63.3 µg/mL) | 63.5 to 64.5 °C
7 | O=CN(O)CC(Cc1ccccc1)C(=O)N[C@@H](Cc1ccccc1)C(=O)OC1CCCC1 (stereo partly drawn) [Example 1, 2S-[2-(R,S)-Benzyl-3-(formyl-hydroxy-amino)-propionylamino]-3-phenyl-propionic acid cyclopentyl ester] | 500 µM (≈ 219 µg/mL) | 12.5 µM (≈ 5.48 µg/mL) | –
8 | CCCCC(CN(O)C=O)C(=O)N[C@H](C(=O)OC1CCCC1)C(C)C (stereo partly drawn) [Example 6, 2S-{2R-[(Formyl-hydroxy-amino)methyl]-hexanoylamino}-3-methyl Butyric Acid Cyclopentyl Ester] | 100 µM (≈ 35.6 µg/mL) | 50 µM (≈ 17.8 µg/mL) | –
